In ChEMBL document CHEMBL2074048, “Identification of a region of the ileal-type sodium/bile acid cotransporter interacting with a competitive bile acid transport inhibitor” (Biochemistry, 2002):

Columns and labels:
[1] = biological target: T1, Ileal sodium/bile acid cotransporter (Mus musculus, UniProt P70172); test: (§1) TP_TRANSPORTER: inhibition of Taurocholate accumulation in ASBT-expressing HEK293 cells; type: functional, cell-based
T1 sequence (P70172 whole entry): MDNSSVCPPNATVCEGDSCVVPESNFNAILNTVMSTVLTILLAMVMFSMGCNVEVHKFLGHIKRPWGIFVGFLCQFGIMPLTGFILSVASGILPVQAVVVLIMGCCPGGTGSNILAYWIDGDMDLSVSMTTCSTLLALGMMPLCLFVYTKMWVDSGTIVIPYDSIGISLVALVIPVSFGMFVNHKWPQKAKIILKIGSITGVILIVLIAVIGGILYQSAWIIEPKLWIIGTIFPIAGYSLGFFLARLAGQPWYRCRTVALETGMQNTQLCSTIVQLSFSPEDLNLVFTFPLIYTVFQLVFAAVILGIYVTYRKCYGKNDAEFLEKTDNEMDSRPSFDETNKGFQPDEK

[2] = biological target: T2, Ileal sodium/bile acid cotransporter (Homo sapiens, UniProt Q12908); test: as §1; type: functional, cell-based
T2 sequence (Q12908 whole entry): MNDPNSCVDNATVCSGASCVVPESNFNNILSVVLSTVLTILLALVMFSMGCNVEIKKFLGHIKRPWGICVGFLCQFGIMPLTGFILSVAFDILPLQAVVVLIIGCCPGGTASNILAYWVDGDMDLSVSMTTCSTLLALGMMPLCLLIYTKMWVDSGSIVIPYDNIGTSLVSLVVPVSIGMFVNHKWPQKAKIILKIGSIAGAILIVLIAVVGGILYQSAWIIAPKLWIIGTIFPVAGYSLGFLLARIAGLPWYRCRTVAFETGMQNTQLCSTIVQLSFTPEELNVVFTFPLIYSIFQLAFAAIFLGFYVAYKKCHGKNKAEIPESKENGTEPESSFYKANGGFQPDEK

- Ki [1]: 0.068 µM
- Ki [2]: 10 µM
Structure (SMILES): CCCC[C@]1(CC)CS(=O)(=O)c2ccccc2[C@@H](c2ccccc2)N1
